Assay results: US7456216B2, “Methods for the preparation and formulation of l-carnitine valproate salts” (BioLink Life Sciences, Inc., priority 2007, dated 2008)

What was measured:
[1] = Storage in ambient atmosphere, gross weight monitored over 6 days (hygroscopicity); type: physicochemical; settings: for Conclusion & Observations (hygroscopicity): 6 days in ambient atmosphere; for Net weight, final / Change of net weight, final vs initial: after 6 days in ambient atmosphere; for Net weight, initial: weighed portion before exposure to ambient atmosphere
Description: The effects of storage of the L-carnitine valproate salts of Examples 1 and 2 in ambient atmospheres were monitored for 6 days. For comparison, L-carnitine (Sigma Aldrich Chemical Co.), sodium valproate (Sigma Aldrich Chemical Co.), and divalproex sodium were also monitored in the same manner. The experiment was performed by weighing portions of each compound into a tared glass container and periodically monitoring the gross weight of the compound+container over a 6 day period.

[2] = conventional L-carnitine; cited from earlier work
[3] = cited from earlier work
[4] = Storage in a closed and sealed container (stability, odor); type: physicochemical; settings: for Odor detected during storage: trimethylamine odor indicates degradation
Source text: L-Carnitine magnesium salts of the present invention are stable when stored in a closed and sealed container. […] Both L-carnitine calcium valproate and L-carnitine magnesium valproate are converted to the corresponding hydrates by exposure to water vapor in the atmosphere. Each hydrate has a characteristic melting point.

[5] = Solubility in water or aqueous solutions; type: physicochemical
deacetylase = settings: dose between 20 and 40 mg/kg; patients with cervical cancer; cited from earlier work

Compound | Conclusion & Observations (hygroscopicity) [1] | Net weight, final [1] | Net weight, initial [1] | further results
CCCC(CCC)C(=O)O [Divalproex sodium, reference compound] | Mass of the material did not change. Material is not hygroscopic. | 100 mg | 100 mg | –
C[N+](C)(C)C[C@H](O)CC(=O)[O-] [L-Carnitine, L-(−)-Carnitine] | Material is hygroscopic. | >227 mg | 208 mg | Bioavailability of L-carnitine [2]: 15-20 % of the administered dose
CCCC(CCC)C(=O)[O-].[Na+] [Sodium valproate, reference compound] | very hygroscopic. | – | – | –
CCCC(CCC)C(=O)O [Valproic acid, 2-propylpentanoic acid] | – | – | – | Solubility in water [3]: very slightly soluble in water
L-carnitine calcium valproate | Appearance and mobility of the material did not change. Material absorbed water | 202 mg | 194 mg | Change of net weight, final vs initial [1]: (+5%); Stability during storage [4]: stable; Odor detected during storage [4]: no odor is detected
L-carnitine magnesium valproate | Material absorbed water and was converted to a hydrate, which is further | 163 mg | 142 mg | Change of net weight, final vs initial [1]: (+15%); Solubility in water or aqueous solutions [5]: readily dissolved in water or aqueous solutions; Stability during storage [4]: stable; Odor detected during storage [4]: a slight odor of trimethylamine is detected
magnesium 2-propylvalerate [magnesium valproate] | – | – | – | Deacetylase activity in tumor tissues (deacetylase): inhibits deacetylase activity and hyperacetylates histones in tumor tissues
